Assay results: PMC7764916, “The Cholinesterase Inhibitory Properties of Stephaniae Tetrandrae Radix” (Molecules, 2020)
Like-named read-outs stand apart in the source and are kept apart here.

Experiments:
BChE = target: T1, BChE (Mus musculus, UniProt Q03311); test: BChE activity assay (Ellman method), mouse serum; format: biochemical; conditions: for IC50: alkaloids, Figure 3B; for BChE inhibitory activity (in words): Figure 3
T1 construct: the brain lysate and iso-OMPA were replaced with diluted serum solution and 0.1 μM BW284c51; from tissue; host or cells: mouse serum (diluted 1:50)
T1 sequence (Q03311 30-603): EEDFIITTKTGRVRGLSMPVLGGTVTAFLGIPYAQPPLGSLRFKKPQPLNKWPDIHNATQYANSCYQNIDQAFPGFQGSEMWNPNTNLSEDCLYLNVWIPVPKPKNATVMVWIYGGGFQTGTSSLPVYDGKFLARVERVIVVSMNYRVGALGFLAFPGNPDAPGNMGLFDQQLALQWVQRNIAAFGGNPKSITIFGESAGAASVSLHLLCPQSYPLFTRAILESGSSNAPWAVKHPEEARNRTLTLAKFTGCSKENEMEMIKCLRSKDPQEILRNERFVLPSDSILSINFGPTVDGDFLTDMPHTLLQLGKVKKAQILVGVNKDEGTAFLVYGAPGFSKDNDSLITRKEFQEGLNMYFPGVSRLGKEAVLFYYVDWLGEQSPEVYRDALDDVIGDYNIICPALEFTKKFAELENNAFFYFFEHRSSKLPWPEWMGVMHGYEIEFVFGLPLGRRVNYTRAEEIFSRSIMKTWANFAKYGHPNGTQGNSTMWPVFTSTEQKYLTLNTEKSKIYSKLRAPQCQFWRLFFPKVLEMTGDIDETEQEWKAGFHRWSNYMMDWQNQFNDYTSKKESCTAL
Experimental: Mouse serum (1: 50 v/v, diluted with precooled low-salt lysis buffer) was prepared for the BChE activity assay. The BChE assay medium consisted of the same composition as the AChE assay medium, except that the brain lysate and iso-OMPA were replaced with diluted serum solution and 0.1 μM BW284c51. The mixture of diluted serum, Na2HPO4 buffer, and BW284c51 solution was incubated at 37 °C for 10 min, and then the solutions of DNTB and ATCh were added. […] The concentration of DMSO in the reaction system of AChE/BChE assay was controlled at 0.5%. […] The AChE/BChE inhibitory activity of drugs was calculated as a percentage of the control absorbance value, AChE/BChE inhibition (%) = (1 − absorbance with inhibitor/absorbance without inhibitor) × 100%. […] The protein concentrations were measured using the Bio-Rad Protein Assay kit (Hercules, CA, USA).

AChE [1] = target: T2, AChE (Mus musculus, UniProt P21836); test: Enzyme kinetic analysis of AChE inhibition (Lineweaver–Burk plots); format: biochemical; conditions: for type of AChE inhibition: Lineweaver–Burk plots; for Ki: estimated from Lineweaver–Burk plots, ATCh 0.040–0.625 mM
T2 construct: The AChE assay medium consisted of brain lysate (5 mg/mL) with testing drugs; from tissue; host or cells: mouse brain (Triton X-100 low-salt lysate)
T2 sequence (P21836 32-614): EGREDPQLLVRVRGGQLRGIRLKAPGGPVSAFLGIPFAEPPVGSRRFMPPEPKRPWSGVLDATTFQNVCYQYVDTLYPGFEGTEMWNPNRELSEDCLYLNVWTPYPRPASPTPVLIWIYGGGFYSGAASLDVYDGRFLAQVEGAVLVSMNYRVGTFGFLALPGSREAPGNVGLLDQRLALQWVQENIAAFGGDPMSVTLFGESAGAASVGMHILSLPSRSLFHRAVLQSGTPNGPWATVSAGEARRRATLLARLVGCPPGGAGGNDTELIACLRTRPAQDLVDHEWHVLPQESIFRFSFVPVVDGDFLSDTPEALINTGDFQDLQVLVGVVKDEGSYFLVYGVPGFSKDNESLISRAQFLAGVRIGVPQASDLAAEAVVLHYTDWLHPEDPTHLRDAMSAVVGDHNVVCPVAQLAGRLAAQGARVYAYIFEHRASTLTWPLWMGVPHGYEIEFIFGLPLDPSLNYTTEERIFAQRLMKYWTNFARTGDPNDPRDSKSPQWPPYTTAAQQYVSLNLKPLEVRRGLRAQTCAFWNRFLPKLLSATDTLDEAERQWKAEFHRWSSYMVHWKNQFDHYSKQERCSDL
Experimental: Figure 4 The enzyme kinetic analysis of AChE inhibition by fangchinoline and cyclanoline. Different doses of fangchinoline (0.5–5 μM) and cyclanoline (30–120 μM) were added to the AChE reaction system and preincubated at 37 °C with the brain lysate, followed by the addition of a range of doses of ATCh (0.040–0.625 mM). The inhibition constants Ki were estimated from the plots of the slope versus the concentration of tested drugs. Donepezil (25 nM) served as a positive control. The data are expressed as the mean ± SEM (standard error of mean) of three […] assays, each with triplicate samples.
The Michaelis constant (Km), maximum velocity (Vmax), and inhibitory constant (Ki) were used to evaluate the kinetics of fangchinoline and cyclanoline. Lineweaver–Burk plots were then plotted using initial velocities, from which the Km and Vmax values were calculated (the absolute values of horizontal and vertical intercepts were 1/Km and 1/Vmax, respectively). The slopes of reciprocal plots were then plotted against the doses of fangchinoline and cyclanoline, and Ki values were determined as the absolute value of the x-axis intercept. Donepezil was used as a positive control. All experiments were performed in triplicate.

AChE [2] = target: T2, AChE; test: biochemical
Experimental: The extracts and alkaloids of STR were tested for cholinesterase activity using a 96-well microtiter plate (Corning, NY, USA) with a final volume of 200 μL, according to the Ellman method. […] The mixture of brain lysate, Na2HPO4 buffer, and iso-OMPA solution was incubated at 37 °C for 10 min, and then the solutions of DNTB and ATCh were added.
Mouse serum (1: 50 v/v, diluted with precooled low-salt lysis buffer) was prepared for the BChE activity assay. The BChE assay medium consisted of the same composition as the AChE assay medium, except that the brain lysate and iso-OMPA were replaced with diluted serum solution and 0.1 μM BW284c51. The mixture of diluted serum, Na2HPO4 buffer, and BW284c51 solution was incubated at 37 °C for 10 min, and then the solutions of DNTB and ATCh were added. […] The concentration of DMSO in the reaction system of AChE/BChE assay was controlled at 0.5%. […] The protein concentrations were measured using the Bio-Rad Protein Assay kit (Hercules, CA, USA).

[3] = alkaloids, Figure 3B, read-out: AChE IC50

Row | SMILES | IC50 (BChE) | type of AChE inhibition (AChE [1]) | Ki (AChE [1]) | IC50 (AChE [2]; [3]) | BChE inhibitory activity (in words) (BChE) | IC50 (AChE [2]; Figure 5A, ATCh 0.625 mM, read-out: AChE IC50 (single drug, synergy experiment)) | AChE inhibitory activity (in words) (AChE [2]; Figure 3)
1 | COc1ccc2c3c1O[C@H]1C[C@@H](O)C=C[C@@]31CCN(C)C2 [Galanthamine, galanthamine, reference compound] | 49.8 ± 2.5 µM |  |  |  |  |  | 
2 | COc1cc2c(cc1O)[C@@H]1Cc3ccc(OC)c(O)c3C[N@+]1(C)CC2 [cyclanoline] | 247 ± 5.46 µM | noncompetitive | 72.3 µM | 106 ± 2.29 µM |  |  | 
3 | COc1ccc2cc1Oc1ccc(cc1)C[C@H]1c3cc(c(OC)cc3CCN1C)Oc1c(O)c(OC)cc3c1[C@H](C2)N(C)CC3 [fangchinoline] |  | noncompetitive | 1.79 µM | 2.58 ± 0.28 µM | no inhibitory activity on BChE | 2.12 ± 0.16 µM | 
4 | COc1ccc2cc1Oc1ccc(cc1)C[C@H]1c3cc(c(OC)cc3CCN1C)Oc1c(OC)c(OC)cc3c1[C@H](C2)N(C)CC3 [tetrandrine] |  |  |  |  | no or little inhibitory activity on BChE |  | no inhibitory activity on AChE at the maximal dissolvable concentration
